Results on three compounds are retold here after patent US6344456B1, “Piperazinone derivatives and their uses” (Laboratoire L. Lafon, priority 1998, dated 2002).

The structures appear in SMILES notation.

For one test, the system named is Guinea Pig Platelets. Briefly: In vitro inhibition of collagen-induced platelet aggregation, guinea pig platelet-rich plasma. The class given is cell-based. Conditions: Cavia porcellus, Platelet, 0.05 h; guinea pig PRP, collagen 1 μg/ml, 3 minutes of contact at 37° C. The procedure: (§1) A study of the inhibitory activity of the compounds of formula I on platelet aggregation was carried out in vitro, i.e. by direct contact of solutions of variable concentrations of the compounds with platelets freshly separated from a sample of whole blood, taken under standardized conditions, from laboratory animals (guinea pigs) and from healthy human subjects who have not received any substances or drugs that might interfere with blood clotting. The anti-platelet-aggregating activity was also studied ex vivo/vitro, i.e. after administration of the substances claimed in guinea pigs to measure the intensity and duration of the anti-aggregating action induced by the fraction of the test product absorbed and circulating in the blood.
1.1. Studies on Guinea Pig Platelets
Blood is taken by intracardiac puncture from male Dunkin-Hartley guinea pigs (weighing about 330 g), at a rate of 4.5 ml per 0.5 ml of trisodium citrate (concentration of the aqueous solution: 1.55%) in order to prevent all trace of clotting. The platelet-rich plasma (PRP) is obtained by centrifuging the tubes of whole blood for 15 minutes at 150 g.
The PRPs are collected as. “pools”. The platelets contained in these pools are counted using a Coulter ZM haematology automatic device: if necessary, a dilution is carried out in order for the platelet concentration in the plasma to be between 200,000 and 400,000 platelets/mm^3. Simultaneously, other samples of these pools serve to prepare the platelet-poor plasma (PPP) by centrifugation at 1,500 g for 15 minutes.
The kinetic study of the platelet aggregation is carried out by adding a collagen solution (1 μg/ml) to a volume of PRP, using a Chrono-log Corporation aggregometer (490-D1 or 560 VS) which uses an optical detection of the appearance of the thrombus.
The measurements of the aggregation inhibition are carried out after 3 minutes of contact at 37° C. with agitation.

Test [1] relates to platelet aggregation induced by collagen. In words: Ex vivo/vitro anti-platelet-aggregating activity in guinea pigs after gastric administration. On the set-up: species or system guinea pig. Conditions: for % of g.r. inhibition guinea pig ex vivo d = 150 mg/kg −1 h: administered 1 h before blood is taken; for % of g.r. inhibition guinea pig ex vivo d = 150 mg/kg −2 h: administered 2 h before blood is taken. The procedure: as §1
2. ex vivo/vitro Pharmacological Study in Guinea Pigs
Evaluation of the anti-platelet-aggregating activity of the compounds is carried out in the same guinea pigs as those mentioned above (Dunkin-Hartley strain). The administration of each product in a range of doses from 150 mg/kg to 10 mg/kg and of each vehicle (5 ml/kg) is carried out via the gastric route (g.r.) 1h or 2h or 4h or 6h or 8h or 12h before blood is taken from the guinea pigs fasted the day before. The allocation of the treatments to the animals is random.
The blood is taken and then treated under the same conditions as those described above for the in vitro studies.
The results of the inhibition of the platelet aggregation obtained for each test concentration make it possible to calculate the IC50 concentration of each test product and the kinetics of the inhibitory effect and its duration of action.

The next test concerns Human Platelets. In words: In vitro inhibition of collagen-induced platelet aggregation, human platelet-rich plasma. Conditions: Platelet, 0.05 h; human PRP, collagen 5 μg/ml, 3 minutes of contact at 37° C.; read-out: IC50 (M) in vitro Man. The class given is cell-based. The procedure:
A study of the inhibitory activity of the compounds of formula I on platelet aggregation was carried out in vitro, i.e. by direct contact of solutions of variable concentrations of the compounds with platelets freshly separated from a sample of whole blood, taken under standardized conditions, from laboratory animals (guinea pigs) and from healthy human subjects who have not received any substances or drugs that might interfere with blood clotting. The anti-platelet-aggregating activity was also studied ex vivo/vitro, i.e. after administration of the substances claimed in guinea pigs to measure the intensity and duration of the anti-aggregating action induced by the fraction of the test product absorbed and circulating in the blood. 1.2 Study on Human Platelets Venous blood is taken from a group of ten healthy human subjects of the same age, by puncture into a vein of the fold of the elbow and is collected in a glass tube containing aqueous 0.129 M sodium citrate solution (1 volume of citrate solution per 9 volumes of blood). Each tube is then centrifuged a first time at 20° C. and 100 g for 15 minutes in order to obtain the platelet-rich plasma (PRP); after removing this PRP, the tube is again centrifuged at 2,000 g for 15 minutes in order this time to remove the platelet-poor plasma (PPP). For each identified sample of PRP, the platelets are counted using a Coulter ZM counter. […] A control test intended to check the possible effect of the solvents (reference value) on the platelet aggregation is introduced into each measurement series, and is measured after 3 minutes of contact at 37° C. with agitation.

The IC50 is the point on the concentration scale where inhibition reaches its midpoint. Compound `Cl.N=C(N)c1ccc(N2CCN(CC(=O)NCCC(=O)O)CC2=O)cc1` [Example 28, 3-{[2-(4-{4-[amino(imino)methyl]phenyl}-3-oxopiperazino)acetyl]amino}propanoic acid hydrochloride] yielded an IC50 with Guinea Pig Platelets of 16 µM. In addition, in test [1], the “% of g.r. inhibition guinea pig ex vivo d = 150 mg/kg −1 h” value is reported as −28% and the “% of g.r. inhibition guinea pig ex vivo d = 150 mg/kg −2 h” value was −23%. Moreover, the concentration for half-maximal inhibition (IC50) in the test with Human Platelets was 1.4e-06 M.
`Cl.N=C(N)c1ccc(N2CCN(CC(=O)NC(CC(=O)O)c3ccc4c(c3)OCO4)C(=O)C2)cc1` (centres unmarked) [Example 19, 3-{[2-(4-{4-[amino(imino)methyl]phenyl}-2-oxopiperazino)acetyl]amino}-3-(1,3-benzodioxol-5-yl)propanoic acid hydrochloride]: the IC50 in the test on Guinea Pig Platelets came out at 0.15 µM; with Human Platelets it was 3.4e-07 M. Also, in test [1] (10 mg/kg, administered 1h before the aggregation test), the “anti-aggregating action ex-vivo in guinea pigs, oral dose 10 mg/kg, 1h” value turned out to be 57%. In addition, the “anti-aggregating action ex-vivo in guinea pigs, oral dose 10 mg/kg, 2h” value in test [1] (10 mg/kg, administered 2h before the aggregation test) came out at 24%. Also, the “% of g.r. inhibition guinea pig ex vivo d = 150 mg/kg −1 h” value in test [1] was −69%. Moreover, the “% of g.r. inhibition guinea pig ex vivo d = 150 mg/kg −2 h” value in test [1] is −78%.
Regarding `Cl.N=C(N)c1ccc(N2CCN(CC(=O)NCCC(=O)O)C(=O)C2)cc1` [Example 17, 3-{[2-(4-{4-[amino(imino)methyl]phenyl}-2-oxopiperazino)acetyl]amino}propanoic acid hydrochloride], the midpoint of inhibition in the test with Guinea Pig Platelets, the IC50, lay at 4.8 µM. In test [1], the “% of g.r. inhibition guinea pig ex vivo d = 150 mg/kg −1 h” value is −43% and the “% of g.r. inhibition guinea pig ex vivo d = 150 mg/kg −2 h” value was −38%. The IC50 in the test with Human Platelets turned out to be 5.2e-06 M.
